The values that follow come from patent US6355784B1, “Methods and compositions for the manufacture of halogenated anthracyclines with increased antitumor activity, other anthracyclines, halogenated sugars, and glycosyl donors” (priority 1998, dated 2002).

Data set [1] has as its system KBVI (MDR) cells. As to the kind of experiment: MTT cytotoxicity assay, multi-drug-resistant KBV1 cells. To be noted: for ID50 KBVI (MDR): multi-drug-resistant KBV1 cells overexpressing MDR1 (P-gp), MTT, 72 hours; for RI (resistance index) KBVI vs KB: ratio of ID50 in KB and KBVI cells. A general note: Formazan colour is commonly taken as a measure of viable cells.
In data set [2] the test system is MCF-7/VP-16 (MRP) cells. The note with it: for ID50 MCF-7/VP-16 (MRP): MRP-overexpressing MCF-7/VP-16 cells, MTT, 72 hours; for RI (resistance index) MCF-7/VP-16 vs MCF-7: ratio of ID50 in MCF-7 and MCF-7/VP-16 cells.
The subject of data set [3] is MCF-7 cells. In words: MTT cytotoxicity assay, wild-type MCF-7 cells. The note with it: for cytotoxicity in sensitive MCF-7 cells, in words: compared with DOX; for ID50 MCF-7: sensitive human breast carcinoma MCF-7 cells, MTT, 72 hours.
The test system of data set [4] is MCF-7/DOX (MDR) cells. In words: MTT cytotoxicity assay, MDR MCF-7/DOX cells. To be noted: for ID50 MCF-7/DOX (MDR): MDR-overexpressing MCF-7/DOX cells, MTT, 72 hours; for RI (resistance index) MCF-7/DOX vs MCF-7: ratio of ID50 in MCF-7 and MCF-7/DOX cells.
The test system of data set [5] is KB cells. In words: MTT cytotoxicity assay, sensitive KB cells. To be noted: sensitive human carcinoma KB cells, 72 hours.
Data set [6] has as its system amyloid fibrils. To be noted: cited from earlier work.
The subject of data set [7] is prion disease. To be noted: cited from earlier work.
The test system of data set [8] is amyloid enhancing factor. To be noted: preincubation of the amyloid enhancing factor with IDOX; cited from earlier work.
In data set [9] the test system is amyloidosis. The note with it: as a result of amyloid resorption; cited from earlier work.

In brackets after ≈: the same amount, converted by molar mass.

As for `COc1cccc2c1C(=O)c1c(O)c3c(c(O)c1C2=O)CC(O)(C(=O)CO)CC3OC1CC(N)C(F)C(C)O1` (centres unmarked) [WP 722, 4′-deoxy-4′-fluoro-doxorubicin], in data set [1], the “ID50 KBVI (MDR)” value stood at 3.3 ± 0.4 µg/mL (≈ 6.05 µM) and the “RI (resistance index) KBVI vs KB” value was 1.57. In addition, in data set [2], the “ID50 MCF-7/VP-16 (MRP)” value is 4.2 ± 5.0 µg/mL (≈ 7.7 µM) and the “RI (resistance index) MCF-7/VP-16 vs MCF-7” value is 3.23. In data set [2] (compared with DOX), the “cytotoxicity in MCF-7/VP-16 cells, in words” value is recorded as “significant increase in cytotoxicity”. Besides, in data set [3], the “cytotoxicity in sensitive MCF-7 cells, in words” value was “less potent than DOX” and the “ID50 MCF-7” value was 1.3 ± 1.6 µg/mL (≈ 2.38 µM). Moreover, in [4], the “cytotoxicity against resistant MCF-7/DOX cells, in words” value is “highly cytotoxic against resistant cells” and the “ID50 MCF-7/DOX (MDR)” value was found to be 1.9 µg/mL (≈ 3.48 µM). For the same compound, in [5], the “ID50 KB” value came out at 2.1 ± 2.5 µg/mL (≈ 3.85 µM).

In the case of 6′-fluoro-doxorubicin [WP 743], in [1], the “ID50 KBVI (MDR)” value was found to be 41 µg/mL and the “RI (resistance index) KBVI vs KB” value turned out to be 64. In [2], the “ID50 MCF-7/VP-16 (MRP)” value was 2.3 µg/mL and the “RI (resistance index) MCF-7/VP-16 vs MCF-7” value stood at 11.5. For the same compound, in [3], the “ID50 MCF-7” value worked out at 0.2 µg/mL. Further, in [4], the “ID50 MCF-7/DOX (MDR)” value is above 10 µg/mL and the “RI (resistance index) MCF-7/DOX vs MCF-7” value turned out to be 50. For the same compound, the “ID50 KB” value in data set [5] is 0.64 µg/mL.

Turning to `COc1cccc2c1C(=O)c1c(O)c3c(c(O)c1C2=O)CC(O)(C(=O)CO)CC3OC1CC(N)C(I)C(C)O1` (centres unmarked) [IDOX, 4′-iodo-4′-deoxydoxorubicin], the “binding to amyloid fibrils” value in data set [6] was “binds strongly”. Besides, in [7] (Syrian-hamster prion model), the onset of disease entry is given as “delayed onset of the disease” and the survival time entry is recorded as “prolonged”. Moreover, the “accumulation of amyloid fibrils in brain” value in data set [7] (neuropathological examination, versus untreated controls) is “delay in the accumulation of amyloid fibrils”. In [8], the “formation of amyloid deposits” value is recorded as “significantly reduces formation of amyloid deposits”. Also, in data set [9], the “clinical outcome in patients with amyloidosis” value is recorded as “substantial clinical improvement”.

Turning to `COc1cccc2c1C(=O)c1c(O)c3c(c(O)c1C2=O)CC(O)(C(C)=O)CC3OC1CC(N)C(F)C(C)O1.Cl` (centres unmarked) [WP 715, 4′-deoxy-4′-fluoro-daunorubicin hydrochloride], the “ID50 KBVI (MDR)” value in [1] worked out at 4.1 ± 0.6 µg/mL. Moreover, in [3], the “cytotoxicity in sensitive MCF-7 cells, in words” value is “less potent than DOX” and the “ID50 MCF-7” value came to 1.5 ± 1.4 µg/mL. In data set [4], the “cytotoxicity against resistant MCF-7/DOX cells, in words” value is listed as “highly cytotoxic against resistant cells” and the “ID50 MCF-7/DOX (MDR)” value is 2.2 µg/mL. Moreover, the “ID50 KB” value in [5] was determined as 3.15 ± 0.9 µg/mL.

On to `COc1cccc2c1C(=O)c1c(O)c3c(c(O)c1C2=O)CC(O)(C(=O)CO)CC3OC1CC(O)C(F)(F)C(C)O1` (centres unmarked) [WP 600, 3′-deamino-4′-deoxy-4′,4′-difluoro-3′-hydroxy-doxorubicin], for which the “ID50 KBVI (MDR)” value in [1] was 16.9 ± 2.3 µg/mL (≈ 29.9 µM).

In the case of `COc1cccc2c1C(=O)c1c(O)c3c(c(O)c1C2=O)C[C@@](O)(C(=O)CO)C[C@@H]3O[C@H]1C[C@H](N)[C@H](O)[C@H](C)O1` [DOX, doxorubicin, reference compound], in [1], the “cytotoxicity against MDR KB-V1 cells, in words” value is “inactive” and the “ID50 KBVI (MDR)” value was above 100 µg/mL. For the same compound, in data set [2], the “ID50 MCF-7/VP-16 (MRP)” value worked out at 6.2 µg/mL (≈ 11.4 µM) and the “RI (resistance index) MCF-7/VP-16 vs MCF-7” value was 16.3. For the same compound, in [3], the “ID50 MCF-7” value stood at 0.38 µg/mL (≈ 0.699 µM). Further, the “RI fold higher than that of WP 715 and WP 722” value in data set [4] (MCF-7/DOX cells) turned out to be 180 fold. In addition, in data set [4], the “ID50 MCF-7/DOX (MDR)” value was above 100 µg/mL and the “RI (resistance index) MCF-7/DOX vs MCF-7” value is above 263. For the same compound, the “ID50 KB” value in [5] turned out to be 4.1 ± 0.3 µg/mL (≈ 7.54 µM).

For the compound `COc1cccc2c1C(=O)c1c(O)c3c(c(O)c1C2=O)CC(O)(C(=O)CO)CC3OC1CC(O)C(F)C(C)O1` (centres unmarked) [WP 563, 3′-Deamino-4′-fluoro-3′-hydroxydoxorubicin], the “ID50 KBVI (MDR)” value in data set [1] amounted to 2.74 ± 2.9 µg/mL (≈ 5.01 µM).
